Test results as given in paper PMC9083112, “D-Allulose (D-Psicose) Biotransformation From Allitol by a Newly Found NAD(P)-Dependent Alcohol Dehydrogenase From Gluconobacter frateurii NBRC 3264 and the Enzyme Characterization” (Frontiers in Microbiology, 2022).

Molecular target: T1, NAD(P)-dependent alcohol dehydrogenase (ADH) (Gluconobacter frateurii, UniProt Z9DFN4ZG31)
T1 construct: primers encode N-terminal MAQALVLEK and C-terminal DVKLQIVL
T1 sequence (Z9DFN4ZG31 1-345): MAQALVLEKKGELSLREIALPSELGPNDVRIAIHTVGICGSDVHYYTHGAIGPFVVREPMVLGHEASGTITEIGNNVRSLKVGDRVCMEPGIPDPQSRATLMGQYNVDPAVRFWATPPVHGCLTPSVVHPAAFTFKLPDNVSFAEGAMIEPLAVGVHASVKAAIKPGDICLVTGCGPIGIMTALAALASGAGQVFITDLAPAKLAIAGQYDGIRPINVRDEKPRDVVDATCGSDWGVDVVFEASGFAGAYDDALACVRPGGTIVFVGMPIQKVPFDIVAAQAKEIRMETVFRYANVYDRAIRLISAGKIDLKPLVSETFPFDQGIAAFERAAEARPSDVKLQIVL
Assay: global fit (genetic algorithm) of HPLC time courses at […] allitol
Type: biochemical
Settings: product inhibition, noncompetitive form with exponent alpha 1.326; one ki shared by fits with and without Co2+; allitol as substrate; NAD+ 2 mM, pH 7.0, 50 °C; purified or crude enzyme not stated

Ki: 10.7 mM
Compound: OCC1(O)OC[C@@H](O)[C@@H](O)[C@H]1O (stereo partly drawn) [D-allulose]
